Reference: BindingDB's records for doi:10.1021/jm00055a007 (Abbott Laboratories, 1993)
pKi: −log10 of the molar value. Square brackets hold non-standard residues; d marks the D form. Peptide text beside a SMILES is read from it. 1Nal = N[C@@H](Cc1cccc2ccccc12)C(=O)O; pGlu = O=C1CC[C@@H](C(=O)O)N1; NMeS = CN[C@@H](CO)C(=O)O

Molecular target: Gonadotropin-releasing hormone receptor (Rattus norvegicus) (UniProt P30969)
Sequence (P30969 whole entry, looked up): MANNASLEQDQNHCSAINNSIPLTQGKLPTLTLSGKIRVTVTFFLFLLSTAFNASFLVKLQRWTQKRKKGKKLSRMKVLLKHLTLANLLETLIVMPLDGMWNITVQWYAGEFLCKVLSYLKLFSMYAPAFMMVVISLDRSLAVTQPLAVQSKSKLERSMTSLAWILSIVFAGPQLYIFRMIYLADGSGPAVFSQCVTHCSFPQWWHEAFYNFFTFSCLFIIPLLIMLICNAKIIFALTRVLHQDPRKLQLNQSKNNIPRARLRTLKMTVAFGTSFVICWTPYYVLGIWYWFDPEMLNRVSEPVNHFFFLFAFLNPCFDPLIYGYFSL

| pKi | Compound |
| --- | --- |
| 8.90 | CC(C)C[C@H](NC(=O)CNC(=O)[C@H](Cc1ccc(O)cc1)NC(=O)[C@H](CO)NC(=O)[C@H](Cc1c[nH]c2ccccc12)NC(=O)[C@H](Cc1cnc[nH]1)NC(=O)[C@@H]1CCC(=O)N1)C(=O)N[C@@H](CCCN=C(N)N)C(=O)N1CCC[C@H]1C(=O)NCC(=O)O [CAS_35263-73-1] |
| 10.52 | CC(C)C[C@@H](C(=O)N[C@@H](CCCN=C(N)N)C(=O)N1CCC[C@H]1C(=O)NCC(N)=O)N(C)C(=O)[C@@H](Cc1ccc2ccccc2c1)NC(=O)[C@H](Cc1ccc(O)cc1)NC(=O)[C@H](CO)NC(=O)[C@H](Cc1c[nH]c2ccccc12)NC(=O)[C@H](Cc1c[nH]cn1)NC(=O)[C@@H]1CCC(=O)N1 [nafarelin 7NMeLeu] |
| 11.00 | CC(C)C[C@H](NC(=O)[C@@H](Cc1ccc2ccccc2c1)NC(=O)[C@H](Cc1ccc(O)cc1)NC(=O)[C@H](CO)NC(=O)[C@H](Cc1c[nH]c2ccccc12)NC(=O)[C@H](Cc1c[nH]cn1)NC(=O)[C@@H]1CCC(=O)N1)C(=O)N[C@@H](CCCNC(=N)N)C(=O)N1CCC[C@H]1C(=O)NCC(N)=O [nafarelin] |
| 10.52 | CC(C)C[C@H](NC(=O)[C@@H](Cc1ccc2ccccc2c1)NC(=O)[C@H](Cc1ccc(O)cc1)NC(=O)[C@H](CO)NC(=O)[C@H](Cc1cccc2ccccc12)NC(=O)[C@H](Cc1cnc[nH]1)NC(=O)[C@@H]1CCC(=O)N1)C(=O)N[C@@H](CCCN=C(N)N)C(=O)N1CCC[C@H]1C(=O)NCC(N)=O [nafarelin 31Nal] |
| 6.46 | CCNC(=O)[C@@H]1CCCN1C(=O)[C@H](CCCN=C(N)N)N(C)C(=O)[C@H](CC(C)C)NC(=O)[C@@H](CC(C)C)NC(=O)[C@H](Cc1ccc(O)cc1)NC(=O)[C@H](CO)NC(=O)[C@H](Cc1c[nH]c2ccccc12)NC(=O)[C@H](Cc1c[nH]cn1)NC(=O)[C@@H]1CCC(=O)N1 [leuprolide 8NMeArg] |
| 8.66 | CCNC(=O)[C@@H]1CCCN1C(=O)[C@H](CCCN=C(N)N)NC(=O)[C@H](CC(C)C)NC(=O)[C@@H](CC(C)C)NC(=O)[C@H](Cc1ccc(O)cc1)NC(=O)[C@H](CO)NC(=O)[C@H](Cc1c[nH]c2ccccc12)NC(=O)[C@H](Cc1ccccc1)NC(=O)[C@@H]1CCC(=O)N1 [leuprolide 2 Phe] ([pGlu]FWSY[dL]LRP-NHEt) |
| 10.05 | CCNC(=O)[C@@H]1CCCN1C(=O)[C@H](CCCN=C(N)N)NC(=O)[C@H](CC(C)C)NC(=O)[C@@H](CC(C)C)NC(=O)[C@H](Cc1ccc(O)cc1)NC(=O)[C@H](CO)NC(=O)[C@H](Cc1cccc2ccccc12)NC(=O)[C@H](Cc1c[nH]cn1)NC(=O)[C@@H]1CCC(=O)N1 [leuprolide 31Nal] ([pGlu]H[1Nal]SY[dL]LRP-NHEt) |
| 8.85 | CC(C)C[C@H](NC(=O)[C@@H](Cc1ccc2ccccc2c1)NC(=O)[C@H](Cc1ccc(O)cc1)NC(=O)[C@H](CO)NC(=O)[C@H](Cc1c[nH]c2ccccc12)NC(=O)[C@H](Cc1cnc[nH]1)N(C)C(=O)[C@@H]1CCC(=O)N1)C(=O)N[C@@H](CCCN=C(N)N)C(=O)N1CCC[C@H]1C(=O)NCC(N)=O [nafarelin 2NMeHis] |
| 7.48 | CCNC(=O)[C@@H]1CCCN1C(=O)[C@H](CCCN=C(N)N)NC(=O)[C@H](CC(C)C)NC(=O)[C@@H](CC(C)C)NC(=O)[C@H](Cc1ccc(O)cc1)NC(=O)[C@H](CO)NC(=O)[C@H](Cc1c[nH]c2ccccc12)NC(=O)[C@H](Cc1cnc[nH]1)N(C)C(=O)[C@@H]1CCC(=O)N1 [leuprolide 2 NMeHis] |
| 10.05 | CCNC(=O)[C@@H]1CCCN1C(=O)[C@H](CCCN=C(N)N)NC(=O)[C@H](CC(C)C)NC(=O)[C@@H](Cc1c[nH]c2ccccc12)NC(=O)[C@H](Cc1ccc(O)cc1)N(C)C(=O)[C@H](CO)NC(=O)[C@H](Cc1c[nH]c2ccccc12)NC(=O)[C@H](Cc1c[nH]cn1)NC(=O)[C@@H]1CCC(=O)N1 [deslorelin 5NMeTyr] |
| 7.92 | CCNC(=O)[C@@H]1CCCN1C(=O)[C@H](CCCN=C(N)N)NC(=O)[C@H](CC(C)C)NC(=O)[C@@H](CC(C)C)NC(=O)[C@H](Cc1ccc(O)cc1)NC(=O)[C@H](CO)NC(=O)[C@H](Cc1c[nH]c2ccccc12)NC(=O)[C@H](Cc1ccccc1)N(C)C(=O)[C@@H]1CCC(=O)N1 [leuprolide 2NMePhe] |
| 7.55 | CC(C)C[C@H](NC(=O)[C@@H](Cc1ccc2ccccc2c1)NC(=O)[C@H](Cc1ccc(O)cc1)NC(=O)[C@H](CO)NC(=O)[C@H](Cc1c[nH]c2ccccc12)NC(=O)[C@H](Cc1c[nH]cn1)NC(=O)[C@@H]1CCC(=O)N1)C(=O)N(C)[C@@H](CCCN=C(N)N)C(=O)N1CCC[C@H]1C(=O)NCC(N)=O [nafarelin 8NMeArg] |
| 9.52 | CC(C)C[C@H](NC(=O)[C@@H](Cc1ccc2ccccc2c1)NC(=O)[C@H](Cc1ccc(O)cc1)NC(=O)[C@H](CO)NC(=O)[C@H](Cc1c[nH]c2ccccc12)NC(=O)[C@H](Cc1ccccc1)N(C)C(=O)[C@@H]1CCC(=O)N1)C(=O)N[C@@H](CCCN=C(N)N)C(=O)N1CCC[C@H]1C(=O)NCC(N)=O [nafarelin 2NMePhe] |
| 8.42 | CCNC(=O)[C@@H]1CCCN1C(=O)[C@H](CCCN=C(N)N)NC(=O)[C@H](CC(C)C)NC(=O)[C@@H](CC(C)C)N(C)C(=O)[C@H](Cc1ccc(O)cc1)NC(=O)[C@H](CO)NC(=O)[C@H](Cc1c[nH]c2ccccc12)NC(=O)[C@H](Cc1cnc[nH]1)NC(=O)[C@@H]1CCC(=O)N1 [leuprolide 6NMeDLeu] |
| 8.49 | CCNC(=O)[C@@H]1CCCN1C(=O)[C@H](CCCN=C(N)N)NC(=O)[C@H](CC(C)C)NC(=O)[C@@H](CC(C)C)NC(=O)[C@H](Cc1ccc(O)cc1)NC(=O)[C@H](CO)NC(=O)[C@H](Cc1cccc2ccccc12)N(C)C(=O)[C@H](Cc1c[nH]cn1)NC(=O)[C@@H]1CCC(=O)N1 [leuprolide 3NMe1Nal] |
| 9.00 | CCNC(=O)[C@@H]1CCCN1C(=O)[C@H](CCCN=C(N)N)NC(=O)[C@H](CC(C)C)NC(=O)[C@@H](Cc1c[nH]c2ccccc12)NC(=O)[C@H](Cc1ccc(O)cc1)NC(=O)[C@H](CO)NC(=O)[C@H](Cc1cccc2ccccc12)N(C)C(=O)[C@H](Cc1c[nH]cn1)NC(=O)[C@@H]1CCC(=O)N1 [deslorelin 3NMe1Nal] |
| 9.80 | CCNC(=O)[C@@H]1CCCN1C(=O)[C@H](CCCN=C(N)N)NC(=O)[C@H](CC(C)C)N(C)C(=O)[C@@H](CC(C)C)NC(=O)[C@H](Cc1ccc(O)cc1)NC(=O)[C@H](CO)NC(=O)[C@H](Cc1c[nH]c2ccccc12)NC(=O)[C@H](Cc1c[nH]cn1)NC(=O)[C@@H]1CCC(=O)N1 [leuprolide 7NMeLeu] |
| 9.51 | CCNC(=O)[C@@H]1CCCN1C(=O)[C@H](CCCN=C(N)N)N(C)C(=O)[C@H](CC(C)C)NC(=O)[C@@H](Cc1c[nH]c2ccccc12)NC(=O)[C@H](Cc1ccc(O)cc1)NC(=O)[C@H](CO)NC(=O)[C@H](Cc1c[nH]c2ccccc12)NC(=O)[C@H](Cc1cnc[nH]1)NC(=O)[C@@H]1CCC(=O)N1 [deslorelin 8NMeArg] |
| 8.85 | CCNC(=O)[C@@H]1CCCN1C(=O)[C@H](CCCN=C(N)N)NC(=O)[C@H](CC(C)C)NC(=O)[C@@H](CC(C)C)NC(=O)[C@H](Cc1ccc(O)cc1)NC(=O)[C@H](CO)N(C)C(=O)[C@H](Cc1c[nH]c2ccccc12)NC(=O)[C@H](Cc1c[nH]cn1)NC(=O)[C@@H]1CCC(=O)N1 [leuprolide 4NMeSer] ([pGlu]HW[NMeS]Y[dL]LRP-NHEt) |
| 10.52 | CC(C)C[C@H](NC(=O)[C@@H](Cc1ccc2ccccc2c1)NC(=O)[C@H](Cc1ccc(O)cc1)N(C)C(=O)[C@H](CO)NC(=O)[C@H](Cc1c[nH]c2ccccc12)NC(=O)[C@H](Cc1c[nH]cn1)NC(=O)[C@@H]1CCC(=O)N1)C(=O)N[C@@H](CCCN=C(N)N)C(=O)N1CCC[C@H]1C(=O)NCC(N)=O [nafarelin 5NMeTyr] |
| 10.52 | CC(C)C[C@H](NC(=O)[C@@H](Cc1ccc2ccccc2c1)NC(=O)[C@H](Cc1ccc(O)cc1)NC(=O)[C@H](CO)NC(=O)[C@H](Cc1c[nH]c2ccccc12)NC(=O)[C@H](Cc1c[nH]cn1)NC(=O)[C@@H]1CCC(=O)N1)C(=O)N[C@@H](CCCN=C(N)N)C(=O)N1CCC[C@H]1C(=O)N(C)CC(N)=O [nafarelin 10SarNH2] |
| 9.49 | CC(C)C[C@H](NC(=O)[C@@H](Cc1c[nH]c2ccccc12)NC(=O)[C@H](Cc1ccc(O)cc1)NC(=O)[C@H](CO)NC(=O)[C@H](Cc1c[nH]c2ccccc12)NC(=O)[C@H](Cc1c[nH]cn1)NC(=O)[C@@H]1CCC(=O)N1)C(=O)N[C@@H](CCCN=C(N)N)C(=O)N1CCC[C@H]1C(=O)N(C)CC(N)=O [deslorelin 10SarNH2] |
| 10.40 | CC(C)C[C@H](NC(=O)[C@@H](Cc1ccc2ccccc2c1)NC(=O)[C@H](Cc1ccc(O)cc1)NC(=O)[C@H](CO)N(C)C(=O)[C@H](Cc1c[nH]c2ccccc12)NC(=O)[C@H](Cc1c[nH]cn1)NC(=O)[C@@H]1CCC(=O)N1)C(=O)N[C@@H](CCCN=C(N)N)C(=O)N1CCC[C@H]1C(=O)NCC(N)=O [nafarelin 4NMeSer] |
| 8.85 | CCNC(=O)[C@@H]1CCCN1C(=O)[C@H](CCCN=C(N)N)NC(=O)[C@H](CC(C)C)NC(=O)[C@@H](Cc1c[nH]c2ccccc12)NC(=O)[C@H](Cc1ccc(O)cc1)NC(=O)[C@H](CO)NC(=O)[C@H](Cc1c[nH]c2ccccc12)NC(=O)[C@H](Cc1cnc[nH]1)N(C)C(=O)[C@@H]1CCC(=O)N1 [deslorelin 2NMeHis] |
| 11.00 | CCNC(=O)[C@@H]1CCCN1C(=O)[C@H](CCCN=C(N)N)NC(=O)[C@H](CC(C)C)NC(=O)[C@@H](Cc1c[nH]c2ccccc12)NC(=O)[C@H](Cc1ccc(O)cc1)NC(=O)[C@H](CO)NC(=O)[C@H](Cc1c[nH]c2ccccc12)NC(=O)[C@H](Cc1cnc[nH]1)NC(=O)[C@@H]1CCC(=O)N1 [deslorelin] |
| 10.70 | CCNC(=O)[C@@H]1CCCN1C(=O)[C@H](CCCN=C(N)N)NC(=O)[C@H](CC(C)C)NC(=O)[C@@H](Cc1c[nH]c2ccccc12)NC(=O)[C@H](Cc1ccc(O)cc1)NC(=O)[C@H](CO)NC(=O)[C@H](Cc1cccc2ccccc12)NC(=O)[C@H](Cc1cnc[nH]1)NC(=O)[C@@H]1CCC(=O)N1 [deslorelin 31Nal] |
| 10.22 | CCNC(=O)[C@@H]1CCCN1C(=O)[C@H](CCCN=C(N)N)NC(=O)[C@H](CC(C)C)N(C)C(=O)[C@@H](Cc1c[nH]c2ccccc12)NC(=O)[C@H](Cc1ccc(O)cc1)NC(=O)[C@H](CO)NC(=O)[C@H](Cc1c[nH]c2ccccc12)NC(=O)[C@H](Cc1cnc[nH]1)NC(=O)[C@@H]1CCC(=O)N1 [deslorelin 7NMeLeu] |
